Measured values reported in US20200069691A1, “HETEROCYCLIC COMPOUNDS AS HIV PROTEASE INHIBITORS” (Merck Sharp & Dohme Corp., priority 2016, published 2020).

Target: T1, wild-type HIV-1 protease (Human immunodeficiency virus type 1 group M subtype B, UniProt P04585)
T1 construct: Escherichia coli expressed wild-type HIV-1 protease protein
Assay: Assay for Inhibition of Microbial Expressed HIV Protease (peptide substrate cleavage, LC-MS/MS readout)
Type: biochemical
Details: E. coli expressed wild-type HIV-1 protease, mean of at least two independent experiments, read-out: HIV Pr Enzyme HIV1 PR IC50
Summary of the method: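 E. coli-expressed wild-type HIV-1 protease ([…]) was preincubated with inhibitor 30 min at room temperature in pH 5.5 acetate buffer (100 mM NaCl, 0.1% BSA). Then 400 μM octapeptide substrate was added and reacted 1 h at 30 °C; inhibition came from LC-MS/MS product peak areas, mean of ≥2 experiments.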

`N=C1NC(c2ccc(F)cc2)(c2ccc(F)cc2)C(=O)N1Cc1cccc(C(=O)N2CCC(n3c(=O)[nH]c4ccc(F)nc43)CC2)c1` [Compound 276, 3-{1-[(3-{[4,4-bis(4-fluorophenyl)-2-imino-5-oxoimidazolidin-1-yl]methyl}phenyl)carbonyl]piperidin-4-yl}-5-fluoro-1,3-dihydro-2H-imidazo[4,5-b]pyridin-2-one] was tested, and the IC50 was 0.0296 µM.

In the case of `CC(C)CCC1(c2cccc(-c3cccnc3)c2)NC(=N)N(Cc2cccc(C(=O)N3Cc4ccccc4C3)c2)C1=O` (centres unmarked) [Compound 277, 3-[3-(1,3-dihydro-2H-isoindol-2-ylcarbonyl)benzyl]-2-imino-5-(3-methylbutyl)-5-(3-pyridin-3-ylphenyl)imidazolidin-4-one], the IC50 is reported as 0.0298 µM.

For `CCCC1(c2ccccc2)NC(=N)N(Cc2cccc(C(=O)N3Cc4nccnc4C3)c2)C1=O` (centres unmarked) [Compound 278, 3-[3-(5,7-dihydro-6H-pyrrolo[3,4-b]pyrazin-6-ylcarbonyl)benzyl]-2-imino-5-phenyl-5-propylimidazolidin-4-one], the IC50 was 0.182 µM.

`COC(=O)N1CCN(C(=O)c2cccc([C@@H](C)N3C(=N)N[C@](CC(C)C)(c4ccccc4)C3=O)c2)CC1` [Compound 279, methyl 4-[(3-{(1R)-1-[2-imino-4-(2-methylpropyl)-5-oxo-4-phenylimidazolidin-1-yl]ethyl}phenyl)carbonyl] piperazine-1-carboxylate] gave an IC50 of 0.0305 µM.

Compound `N=C1NC(c2ccc(F)cc2)(c2ccc(F)cc2)C(=O)N1Cc1cccc(C(=O)N2CCN(c3ncccn3)CC2)c1` [Compound 280, 5,5-bis(4-fluorophenyl)-2-imino-3-{3-[(4-pyrimidin-2-ylpiperazin-1-yl)carbonyl]benzyl} imidazolidin-4-one] has an IC50 of 0.031 µM.

In the case of `N=C1NC(c2ccccc2)(c2ccccc2)C(=O)N1Cc1cccc(C(=O)N2CCc3c(Cl)cccc3C2)c1` [Compound 281, 3-{3-[(5-chloro-3,4-dihydroisoquinolin-2(1H)-yl)carbonyl]benzyl}-2-imino-5,5-diphenylimidazolidin-4-one], the IC50 is reported as 0.0311 µM.

`CC1CN(C(=O)c2cccc(CN3C(=N)NC(c4ccccc4)(c4ccccc4)C3=O)c2)Cc2nnc(C(F)(F)F)n21` (centres unmarked) [Compound 282, 2-imino-3-(3-{[5-methyl-3-(trifluoromethyl)-5,6-dihydro[1,2,4]triazolo[4,3-a]pyrazin-7(8H)-yl]carbonyl}benzyl)-5,5-diphenylimidazolidin-4-one] was tested, and the IC50 was 0.0314 µM.

`CC(C)CCC1(c2ccccc2)NC(=N)N(Cc2cccc(C(=O)N3CCN(C)C(=O)C3)c2)C1=O` (centres unmarked) [Compound 283, 4-[(3-{[2-imino-4-(3-methylbutyl)-5-oxo-4-phenylimidazolidin-1-yl]methyl}phenyl)carbonyl]-1-methylpiperazin-2-one] was tested, and the IC50 was 0.0318 µM.

`N=C1NC(c2ccc(F)cc2)(c2cccc(-c3cccnc3)c2)C(=O)N1Cc1cccc(C(=O)N2Cc3ccccc3C2)c1` (centres unmarked) [Compound 284, 3-[3-(1,3-dihydro-2H-isoindol-2-ylcarbonyl)benzyl]-5-(4-fluorophenyl)-2-imino-5-(3-pyridin-3-ylphenyl)imidazolidin-4-one] gave an IC50 of 0.0327 µM.

`N=C1NC(c2ccc(F)cc2)(c2ccc(F)cc2)C(=O)N1Cc1cccc(C(=O)N2CCN(c3ccccn3)CC2)c1` [Compound 285, 5,5-bis(4-fluorophenyl)-2-imino-3-{3-[(4-pyridin-2-ylpiperazin-1-yl)carbonyl]benzyl} imidazolidin-4-one] showed an IC50 of 0.0333 µM.

Compound `N=C1NC(c2ccc(F)cc2)(c2ccc(F)cc2)C(=O)N1Cc1cccc(C(=O)N2Cc3cc(Cl)c(Cl)cc3C2)c1` [Compound 286, 3-{3-[(5,6-dichloro-1,3-dihydro-2H-isoindol-2-yl)carbonyl]benzyl}-5,5-bis(4-fluorophenyl)-2-iminoimidazolidin-4-one] has an IC50 of 0.0337 µM.

`COC(=O)C1c2ccccc2CN1C(=O)c1cccc(CN2C(=N)NC(c3ccccc3)(c3ccccc3)C2=O)c1` (centres unmarked) [Compound 287, methyl 2-({3-[(2-imino-5-oxo-4,4-diphenylimidazolidin-1-yl)methyl]phenyl}carbonyl)-2,3-dihydro-1H-isoindole-1-carboxylate] was tested, and the IC50 was 0.0339 µM.

For `COC(=O)N1CCN(C(=O)c2cccc(CN3C(=N)NC(CC(C)C)(c4ccc(F)cc4)C3=O)c2)CC1` (centres unmarked) [Compound 288, methyl 4-[(3-{[4-(4-fluorophenyl)-2-imino-4-(2-methylpropyl)-5-oxoimidazolidin-1-yl]methyl}phenyl)carbonyl] piperazine-1-carboxylate], the IC50 was 0.0353 µM.

Work on `N=C1NC(c2ccc(F)cc2)(c2cccc(Br)c2)C(=O)N1Cc1cccc(C(=O)N2Cc3ccccc3C2)c1` (centres unmarked) [Compound 289, 5-(3-bromophenyl)-3-[3-(1,3-dihydro-2H-isoindol-2-ylcarbonyl)benzyl]-5-(4-fluorophenyl)-2-iminoimidazolidin-4-one] yielded an IC50 of 0.0361 µM.

With `Cc1ncc2c(n1)CN(C(=O)c1cccc(CN3C(=N)NC(c4ccccc4)(c4ccccc4)C3=O)c1)C2` [Compound 290, 2-imino-3-{3-[(2-methyl-5,7-dihydro-6H-pyrrolo[3,4-d]pyrimidin-6-yl)carbonyl]benzyl}-5,5-diphenylimidazolidin-4-one] the IC50 was 0.0363 µM.

`N=C1NC(c2ccccc2)(c2ccccc2)C(=O)N1Cc1cccc(C(=O)N2CCn3c(nnc3C(F)(F)F)C2)c1` [Compound 291, 2-imino-5,5-diphenyl-3-(3-{[3-(trifluoromethyl)-5,6-dihydro[1,2,4]triazolo[4,3-a]pyrazin-7(8H)-yl]carbonyl}benzyl) imidazolidin-4-one] showed an IC50 of 0.0379 µM.

With `N#Cc1cccc(-c2cccc(C3(c4ccc(F)cc4)NC(=N)N(Cc4cccc(C(=O)N5Cc6ccccc6C5)c4)C3=O)c2)c1` (centres unmarked) [Compound 292, 3′-{1-[3-(1,3-dihydro-2H-isoindol-2-ylcarbonyl)benzyl]-4-(4-fluorophenyl)-2-imino-5-oxoimidazolidin-4-yl}biphenyl-3-carbonitrile] the IC50 was 0.039 µM.

For `CC(C)NC(=O)N1CCN(C(=O)c2cc(F)cc(CN3C(=N)NC(c4ccccc4)(c4ccccc4)C3=O)c2)CC1` [Compound 293, 4-({3-fluoro-5-[(2-imino-5-oxo-4,4-diphenylimidazolidin-1-yl)methyl]phenyl}carbonyl)-N-(1-methylethyl) piperazine-1-carboxamide], the IC50 was 0.0392 µM.

Work on `N=C1NC(c2ccc(F)cc2)(c2cccc(C(N)=O)c2)C(=O)N1Cc1cccc(C(=O)N2Cc3ccccc3C2)c1` (centres unmarked) [Compound 294, 3-{1-[3-(1,3-dihydro-2H-isoindol-2-ylcarbonyl)benzyl]-4-(4-fluorophenyl)-2-imino-5-oxoimidazolidin-4-yl}benzamide] yielded an IC50 of 0.0398 µM.

In the case of `N=C1NC(c2ccccc2)(c2ccccc2)C(=O)N1Cc1cccc(C(=O)N2CCc3nccnc3C2)c1` [Compound 295, 3-[3-(7,8-dihydropyrido[3,4-b]pyrazin-6(5H)-ylcarbonyl)benzyl]-2-imino-5,5-diphenylimidazolidin-4-one], the IC50 is reported as 0.0401 µM.

`N=C1NC(c2ccccc2)(c2ccccc2)C(=O)N1Cc1cc(F)cc(C(=O)N2Cc3ccccc3C2)c1` [Compound 296, 3-[3-(1,3-dihydro-2H-isoindol-2-ylcarbonyl)-5-fluorobenzyl]-2-imino-5,5-diphenylimidazolidin-4-one] showed an IC50 of 0.0403 µM.

`C=Cc1c(C(F)(F)F)nc2n1CCN(C(=O)c1cccc(CN3C(=N)NC(c4ccccc4)(c4ccccc4)C3=O)c1)C2` [Compound 297, 3-(3-{[3-ethenyl-2-(trifluoromethyl)-5,6-dihydroimidazo [1,2-a]pyrazin-7(8H)-yl]carbonyl}benzyl)-2-imino-5,5-diphenylimidazolidin-4-one] showed an IC50 of 0.0435 µM.

In the case of `COC(=O)N1CCN(C(=O)c2cc(F)cc(CN3C(=N)NC(c4ccccc4)(c4ccccc4)C3=O)c2)CC1` [Compound 298, methyl 4-({3-fluoro-5-[(2-imino-5-oxo-4,4-diphenylimidazolidin-1-yl)methyl]phenyl}carbonyl) piperazine-1-carboxylate], the IC50 is reported as 0.0435 µM.

`CN(C)C(=O)C1c2ccccc2CN1C(=O)c1cccc(CN2C(=N)NC(c3ccccc3)(c3ccccc3)C2=O)c1` (centres unmarked) [Compound 299, 2-({3-[(2-imino-5-oxo-4,4-diphenylimidazolidin-1-yl)methyl]phenyl}carbonyl)-N,N-dimethyl-2,3-dihydro-1H-isoindole-1-carboxamide] gave an IC50 of 0.0439 µM.

`CC1(C)CN(C(=O)c2cccc(CN3C(=N)NC(c4ccccc4)(c4ccccc4)C3=O)c2)Cc2nnc(C(F)(F)F)n21` [Compound 300, 3-(3-{[5,5-dimethyl-3-(trifluoromethyl)-5,6-dihydro[1,2,4]triazolo[4,3-a]pyrazin-7(8H)-yl]carbonyl}benzyl)-2-imino-5,5-diphenylimidazolidin-4-one] showed an IC50 of 0.044 µM.

Compound `N=C1NC(c2ccccc2)(c2ccccc2)C(=O)N1Cc1cccc(C(=O)N2CCn3nc(C(F)(F)F)nc3C2)c1` [Compound 301, 2-imino-5,5-diphenyl-3-(3-{[2-(trifluoromethyl)-5,6-dihydro[1,2,4]triazolo[1,5-a]pyrazin-7(8H)-yl]carbonyl}benzyl) imidazolidin-4-one] has an IC50 of 0.0452 µM.

Work on `CCCC1(c2ccccc2)NC(=N)N(Cc2cccc(C(=O)N3Cc4cncnc4C3)c2)C1=O` (centres unmarked) [Compound 302, 3-[3-(5,7-dihydro-6H-pyrrolo[3,4-d]pyrimidin-6-ylcarbonyl)benzyl]-2-imino-5-phenyl-5-propylimidazolidin-4-one] yielded an IC50 of 0.0454 µM.

In the case of `CC(C)CC1(c2ccccc2)NC(=N)N(Cc2cccc(C(=O)N3CCN(c4ncccn4)CC3)c2)C1=O` (centres unmarked) [Compound 303, 2-imino-5-(2-methylpropyl)-5-phenyl-3-{3-[(4-pyrimidin-2-ylpiperazin-1-yl)carbonyl]benzyl} imidazolidin-4-one], the IC50 is reported as 0.0459 µM.

`CC(C)CCC1(c2cccc(-c3cccnc3)c2)NC(=N)N(Cc2cccc(C(=O)N3Cc4nccnc4C3)c2)C1=O` (centres unmarked) [Compound 304, 3-[3-(5,7-dihydro-6H-pyrrolo[3,4-b]pyrazin-6-ylcarbonyl)benzyl]-2-imino-5-(3-methylbutyl)-5-(3-pyridin-3-ylphenyl)imidazolidin-4-one] gave an IC50 of 0.0459 µM.
